This is an account of results in US9556165B2 (priority 2012, dated 2017).

Converted amounts (≈) assume the structure as drawn. Some results are limits rather than exact numbers.

Assay in all cases: MIC determination, broth microdilution (CLSI)
Format in all cases: cell-based
For orientation: Dilution methods test growth across graded concentrations, often in twofold steps.

Assay [1] relates to strain 21.
Assay [2] concerns E. coli J62-TEM-3. Particulars: Escherichia coli, J62TEM3, read-out: strain 18 MIC, strain 18.
In assay [3] the test system is P. aeruginosa 2297-con (AmpC derepressed). The note with it: for MIC: Pseudomonas aeruginosa, read-out: strain 8 MIC, strain 8.
Assay [4] concerns H. influenzae ATCC 49247. Particulars: Haemophilus influenzae, ATCC49247, strain 13; read-out: strain 13 MIC.
The test system of assay [5] is K. pneumoniae 60. Particulars: for MIC: Klebsiella pneumoniae, 60, strain 2.
Assay [6] relates to C. freundii K21/3034. The note with it: for MIC: Citrobacter freundii, K21/3034, strain 4.
Assay [7] deals with E. cloacae 34654. Particulars: for MIC: Enterobacter cloacae, 34654, strain 3.
The test system of assay [8] is S. aureus 133. The note with it: Staphylococcus aureus, 133, strain 11; read-out: strain 11 MIC.
For assay [9], the system named is M. morganii 126/3048. The note with it: for MIC: Morganella morganii, 126/3048, strain 5.
For assay [10], the system named is P. aeruginosa PAO1. The note with it: for MIC: Pseudomonas aeruginosa, PAO1, strain 6.
The subject of assay [11] is S. pneumoniae 113. Particulars: Streptococcus pneumoniae, 113, strain 14; read-out: strain 14 MIC.
For assay [12], the system named is E. coli ATCC25922. The note with it: for MIC: Escherichia coli, ATCC25922, strain 1.
Assay [13] relates to E. coli J62. Particulars: for MIC: Escherichia coli, J62, strain 17, read-out: strain 17 MIC.
For assay [14], the system named is B. fragilis 6688. The note with it: Bacteroides fragilis, 6688, strain 15; read-out: strain 15 MIC.
In assay [15] the test system is strain 20.
Assay [16] relates to strain 19.
Assay [17] has as its system P. aeruginosa 2297 (AmpC wt). Particulars: for MIC: Pseudomonas aeruginosa, strain 7.
Assay [18] deals with A. baumannii ATCC15308. The note with it: Acinetobacter baumannii, ATCC15308, strain 9.
Assay [19] has as its system S. maltophilia ICB7569. Particulars: Stenotrophomonas maltophilia, ICB7569, strain 10.
For assay [20], the system named is M. catarrhalis ICB489. The note with it: for MIC: Moraxella catarrhalis, ICB489, strain 12.

In the case of `C[C@H]1[C@H](NC(=O)/C(=N\OC(COc2ccc(C(=N)N)cc2)C(=O)O)c2csc(N)n2)C(=O)N1S(=O)(=O)O` (mixture of isomers) [Example 26A, (2S and 2R)-2-({[(1Z)-1-(2-Amino-1,3-thiazol-4-yl)-2-{[(2S,3S)-2-methyl-4-oxo-1-sulfoazetidin-3-yl]amino}-2-oxoethylidene]amino}oxy)-3-(4-carbamidinoyl-phenoxy)propanoic acid], the “strain 21 MIC” value in assay [1] was 0.125 µg/mL. Moreover, the MIC in assay [2] was 32 µg/mL; in assay [4], 2 µg/mL; in assay [8], no more than 0.063 µg/mL; in assay [11], 32 µg/mL; in assay [14] it was 8 µg/mL; in assay [18], 8 µg/mL. For the same molecule, the MIC in assay [19] came to 16 µg/mL. Further, in assay [3] (strain 8), the “strain 8 MIC” value is 8 µg/mL. Further, the “strain 2 MIC” value in assay [5] (strain 2) was 0.031 µg/mL. Besides, in assay [6] (strain 4), the “strain 4 MIC” value is reported as “≦0.063 mg/L”. Besides, in assay [7] (strain 3), the “strain 3 MIC” value was 0.125 µg/mL. The “strain 5 MIC” value in assay [9] (strain 5) is on record as “≦0.063 mg/L”. Besides, the “strain 6 MIC” value in assay [10] (strain 6) came to 1 µg/mL. Also, in assay [12] (strain 1), the “strain 1 MIC” value is recorded as “≦0.063 mg/L”. In addition, the “strain 17 MIC” value in [13] (strain 17) was found to be 0.125 µg/mL. Besides, the “strain 20 MIC” value in [15] was determined as 0.125 µg/mL. In addition, the “strain 19 MIC” value in [16] is recorded as “≦0.063 mg/L”. In addition, in assay [17], the “strain 7 MIC” value was determined as 2 µg/mL. Further, the “strain 12 MIC” value in [20] (strain 12) is reported as “≦0.063 mg/L”.

Regarding `C[C@H]1[C@H](NC(=O)/C(=N\OCCOc2ccc(C(=N)N)c(O)c2)c2csc(N)n2)C(=O)N1S(=O)(=O)O` [Example 2, (2S,3S)-3-{[(2Z)-2-(2-Amino-1,3-thiazol-4-yl)-2-{[2-(4-carbamimidoyl-3-hydroxyphenoxy)ethoxy]imino}acetyl]amino}-2-methyl-4-oxoazetidine-1-sulfonic acid], the MIC in assay [1] is 0.25 µg/mL (≈ 0.474 µM); in [2], 32 µg/mL (≈ 60.7 µM); in [4], 0.5 µg/mL (≈ 0.948 µM); in [5], 0.125 µg/mL (≈ 0.237 µM); in [6] it was 0.125 µg/mL (≈ 0.237 µM); in assay [7], 0.25 µg/mL (≈ 0.474 µM). The MIC is 0.25 µg/mL (≈ 0.474 µM) in assay [8]; no more than 0.063 µg/mL in assay [9]; 2 µg/mL (≈ 3.79 µM) in assay [10]; 16 µg/mL (≈ 30.3 µM) in [11]; 0.125 µg/mL (≈ 0.237 µM) in [12]; 0.25 µg/mL (≈ 0.474 µM) in assay [13]. The MIC was 16 µg/mL (≈ 30.3 µM) in [14]; 0.125 µg/mL (≈ 0.237 µM) in assay [15]; 0.125 µg/mL (≈ 0.237 µM) in assay [16]; 4 µg/mL (≈ 7.58 µM) in [18]; 0.125 µg/mL (≈ 0.237 µM) in assay [19]; no more than 0.063 µg/mL in assay [20].

As to `C[C@H]1[C@H](NC(=O)/C(=N\OCCOc2ccc(C(=N)N)cc2)c2csc(N)n2)C(=O)N1S(=O)(=O)O` [Example 9, (2S,3S)-3-{[(2Z)-2-(2-Amino-1,3-thiazol-4-yl)-2-{[2-(4-carbamimidoylphenoxy)ethoxy]imino}acetyl]amino}-2-methyl-4-oxoazetidine-1-sulfonic acid], the MIC in assay [1] turned out to be 0.125 µg/mL (≈ 0.244 µM); in assay [2], 16 µg/mL (≈ 31.3 µM); in [3] it was 16 µg/mL (≈ 31.3 µM); in assay [4], 0.25 µg/mL (≈ 0.489 µM); in assay [5] it was 0.125 µg/mL (≈ 0.244 µM); in assay [6], 0.125 µg/mL (≈ 0.244 µM). The MIC in assay [7] was 0.125 µg/mL (≈ 0.244 µM); in assay [8], no more than 0.063 µg/mL; in assay [9] it was 0.125 µg/mL (≈ 0.244 µM); in [10], 2 µg/mL (≈ 3.91 µM); in assay [11], 4 µg/mL (≈ 7.82 µM); in assay [12], 0.125 µg/mL (≈ 0.244 µM). For the same molecule, the MIC was determined as 0.25 µg/mL (≈ 0.489 µM) in assay [13]; 8 µg/mL (≈ 15.6 µM) in assay [14]; 0.125 µg/mL (≈ 0.244 µM) in assay [15]; 0.125 µg/mL (≈ 0.244 µM) in [16]; 2 µg/mL (≈ 3.91 µM) in assay [17]; 0.5 µg/mL (≈ 0.977 µM) in assay [18]. Besides, the MIC in [19] is 32 µg/mL (≈ 62.6 µM); in [20], no more than 0.063 µg/mL.

With `C[C@@H]1[C@H](NC(=O)/C(=N\OCCOc2ccc(C(=N)N)cc2)c2csc(N)n2)C(=O)N1S(=O)(=O)O` [Example 11, (2R,3S)-3-{[(2Z)-2-(2-Amino-1,3-thiazol-4-yl)-2-{[2-(4-carbamimidoylphenoxy)ethoxy]imino}acetyl]amino}-2-methyl-4-oxoazetidine-1-sulfonic acid], the MIC was 0.25 µg/mL (≈ 0.489 µM) in [1]; 8 µg/mL (≈ 15.6 µM) in assay [2]; 16 µg/mL (≈ 31.3 µM) in assay [3]; 0.5 µg/mL (≈ 0.977 µM) in [4]; no more than 0.125 µg/mL in assay [5]; no more than 0.125 µg/mL in [6]. The MIC was no more than 0.063 µg/mL in assay [7]; 0.125 µg/mL (≈ 0.244 µM) in assay [8]; no more than 0.063 µg/mL in [9]; 1 µg/mL (≈ 1.95 µM) in assay [10]; 4 µg/mL (≈ 7.82 µM) in [11]; 0.125 µg/mL (≈ 0.244 µM) in [12]. The MIC in [13] was found to be 0.25 µg/mL (≈ 0.489 µM); in assay [14] it was 8 µg/mL (≈ 15.6 µM); in assay [15], 0.25 µg/mL (≈ 0.489 µM); in assay [16], 0.25 µg/mL (≈ 0.489 µM); in assay [17], 2 µg/mL (≈ 3.91 µM); in [18], 0.5 µg/mL (≈ 0.977 µM). The MIC in assay [19] was found to be 32 µg/mL (≈ 62.6 µM); in assay [20], 0.125 µg/mL (≈ 0.244 µM).

For `C[C@H]1[C@H](NC(=O)/C(=N\OCCOc2cnc(C(=N)N)cn2)c2csc(N)n2)C(=O)N1S(=O)(=O)O` [Example 30, (2S,3S)-3-{[(2Z)-2-(2-Amino-1,3-thiazol-4-yl)-2-({2-[(5-carbamimidoylpyrazin-2-yl)oxy]-ethoxy}imino)acetyl]amino}-2-methyl-4-oxoazetidine-1-sulfonic acid], the MIC in assay [1] is 0.25 µg/mL (≈ 0.487 µM); in [2], 16 µg/mL (≈ 31.2 µM); in assay [3] it was 32 µg/mL (≈ 62.3 µM); in assay [4], 0.5 µg/mL (≈ 0.974 µM); in assay [5], no more than 0.063 µg/mL; in assay [6], no more than 0.063 µg/mL. For the same molecule, the MIC was 0.25 µg/mL (≈ 0.487 µM) in assay [7]; 0.125 µg/mL (≈ 0.243 µM) in assay [8]; no more than 0.063 µg/mL in assay [9]; 4 µg/mL (≈ 7.79 µM) in assay [10]; 4 µg/mL (≈ 7.79 µM) in assay [11]; 0.125 µg/mL (≈ 0.243 µM) in assay [12]. In addition, the MIC in assay [13] was 0.25 µg/mL (≈ 0.487 µM); in assay [14] it was 8 µg/mL (≈ 15.6 µM); in [15] it was 0.25 µg/mL (≈ 0.487 µM); in [16], 0.25 µg/mL (≈ 0.487 µM); in assay [17], 4 µg/mL (≈ 7.79 µM); in [18] it was 1 µg/mL (≈ 1.95 µM). The MIC in [20] worked out at 0.25 µg/mL (≈ 0.487 µM).

In the case of `C[C@H]1[C@H](NC(=O)/C(=N\OCCOc2nc(C(=N)N)cs2)c2csc(N)n2)C(=O)N1S(=O)(=O)O` [Example 31, (2S,3S)-3-{[(2Z)-2-(2-Amino-1,3-thiazol-4-yl)-2-({2-[(4-carbamimidoyl-1,3-thiazol-2-yl)oxy]ethoxy}imino)acetyl]amino}-2-methyl-4-oxoazetidine-1-sulfonic acid], the MIC in assay [1] is 0.25 µg/mL (≈ 0.482 µM); in [2], 32 µg/mL (≈ 61.7 µM); in assay [3], 32 µg/mL (≈ 61.7 µM); in [4], 0.25 µg/mL (≈ 0.482 µM); in [5], no more than 0.063 µg/mL; in assay [6], no more than 0.063 µg/mL. In addition, the MIC in assay [7] is 0.25 µg/mL (≈ 0.482 µM); in [8], no more than 0.063 µg/mL; in [9], 0.25 µg/mL (≈ 0.482 µM); in assay [10], 8 µg/mL (≈ 15.4 µM); in assay [11] it was 8 µg/mL (≈ 15.4 µM); in assay [12], 0.125 µg/mL (≈ 0.241 µM). The MIC worked out at 0.25 µg/mL (≈ 0.482 µM) in assay [13]; 4 µg/mL (≈ 7.71 µM) in [14]; 0.25 µg/mL (≈ 0.482 µM) in assay [15]; 0.125 µg/mL (≈ 0.241 µM) in assay [16]; 8 µg/mL (≈ 15.4 µM) in [17]; 1 µg/mL (≈ 1.93 µM) in [18]. In assay [20], the MIC came out at 0.25 µg/mL (≈ 0.482 µM).

In the case of `C[C@H]1[C@H](NC(=O)/C(=N\OCCOc2ccc(C(=N)N)cc2N)c2csc(N)n2)C(=O)N1S(=O)(=O)O` [Example 35, (2S,3S)-3-{[(2Z)-2-{[2-(2-Amino-4-carbamimidoylphenoxy)ethoxy]imino}-2-(2-amino-1,3-thiazol-4-yl)acetyl]amino}-2-methyl-4-oxoazetidine-1-sulfonic acid], the MIC in assay [1] was found to be 4 µg/mL (≈ 7.6 µM); in [2], 32 µg/mL (≈ 60.8 µM); in assay [3], 32 µg/mL (≈ 60.8 µM); in assay [4] it was 1 µg/mL (≈ 1.9 µM); in assay [5], 2 µg/mL (≈ 3.8 µM); in assay [6], 2 µg/mL (≈ 3.8 µM). The MIC turned out to be 4 µg/mL (≈ 7.6 µM) in assay [7]; 0.25 µg/mL (≈ 0.475 µM) in assay [8]; 1 µg/mL (≈ 1.9 µM) in assay [9]; 16 µg/mL (≈ 30.4 µM) in [10]; 32 µg/mL (≈ 60.8 µM) in assay [11]; 2 µg/mL (≈ 3.8 µM) in assay [12]. For the same molecule, the MIC in assay [13] was 4 µg/mL (≈ 7.6 µM); in [14], 16 µg/mL (≈ 30.4 µM); in assay [15], 8 µg/mL (≈ 15.2 µM); in assay [16] it was 2 µg/mL (≈ 3.8 µM); in assay [17] it was 16 µg/mL (≈ 30.4 µM); in assay [18], 2 µg/mL (≈ 3.8 µM). Moreover, in assay [20], the MIC was determined as 1 µg/mL (≈ 1.9 µM).
